Here are results for 26 compounds from patent publication US9012153B2, “Method for screening olfactory sensibility inhibitor” (Kao Corporation, priority 2008, dated 2015).

SMILES strings stand for the structures.

Test [1] deals with voltage-dependent cation channel. Kind of test: Whole-cell recording of inward current in isolated olfactory receptor cells. The format is cell-based, Cynops pyrrhogaster. As for the experimental part:
Olfactory receptor cells were isolated from newts (Cynops pyrrhogaster) through a known method (Kurahashi et al., J. Physiol. (1989), 419: 177-192) and bathed in a normal Ringer's solution. More specifically, each newt which had been hibernated in ice-water was double-pithed, and the skull thereof was cut, to thereby remove the olfactory membrane. The removed olfactory membrane was incubated in 0.1% collagenase solution at 37° C. for five minutes. After washing off collagenase, the membrane tissue was broken by means of a glass pipette, to thereby isolate olfactory cells. The normal Ringer's solution had the following composition: NaCl 110 mM, KCl 3.7 mM, CaCl2 3 mM, MgCl2 1 mM, glucose 15 mM, sodium pyruvate 1 mM, HEPES 2 mM, and Phenol Red 0.001% (w/v), with a pH of 7.4 (adjusted with NaOH).
The membrane current of the isolated olfactory cells was recorded through the whole-cell recording method, while the membrane potential was fixed (Kawai et al., J. Gen. Physiol. (1997), vol. 109: 265-272). The electrode employed was produced from borosilicate glass capillary (diameter: 1.2 mm) by means of a puller for electrode fabrication (PP-830, product of Narishige Scientific Instruments). […] Then, an electrode solution was added in the electrode, and an Ag—AgCl wire was inserted into the electrode. The Ag—AgCl wire was connected to a patch-clamp amplifier (Axopatch 1D, 200B, product of Axon Instrument), whereby fixation of the membrane potential and depolarization stimulation were performed. The employed electrode solution had the following composition: KCl 120 mM, HEPES 2 mM, and Phenol Red 0.001% (w/v), with a pH of 7.4 (adjusted with KOH). The membrane current was recorded by a computer which was connected by the mediation of the patch-clamp amplifier and an A/D converter (Digidata 1320, product of Axon Instrument). Each test substance was sprayed to the cells for stimulation, by means of a pressure-controller. The pressure controller is an apparatus which reduces the pressure of compressed air supplied by means of an air-compressor to a specific value under computer-controlled conditions and which feeds the compressed air for a predetermined period of time to a tail of the glass pipette in which the test substance has been charged (Ito et al., The Japanese Journal of Physiology, 1995, vol. 57, 127-133).
In order to investigate the effect of the test substance on the voltage-dependent cation channel activity, the membrane potential of the isolated olfactory cells was fixed to −100 mV, and depolarized to −20 mV for 20 ms at intervals of 200 ms. The peak amplitude of the inward current elicited immediately after depolarization was measured. Each of the test substances shown in Table 1 (1 μL) was mixed with the normal Ringer's solution (1 mL). Under continuous depolarization stimulation, the mixture was sprayed toward the olfactory cells (720 ms, at 50 kPa) through a glass pipette (tip diameter: 1 μm) that was placed such that the tip of the pipette was located in the vicinity ([…]) of the olfactory cells to add the mixture to the olfactory cells, and the change in inward current was monitored. Stimulation of one olfactory cell by the test substance was performed three times, and the three inward currents obtained from the cell were averaged. Each test substance was tested by three olfactory cells, and the three inward currents obtained from the cells were averaged. During the test, in very rare cases, the olfactory receptor responded to stimulation by the test substance, and inward current attributed to a CNG channel was observed. However, such cases were eliminated for evaluation. One conceivable reason for occurrence of such a case is that the test substance acts as an […] to the olfactory receptor on the olfactory cell employed in the test. CNG channel current is readily distinguishable from voltage-dependent channel current in terms of amplitude, peak shape, and duration. […]

Test [2] concerns isovaleric acid (malodorous substance). Kind of test: Olfactory masking test based on sensory evaluation with 20 specialists. The format is in vivo. Also on record: key: 0 = no masking effect, 5 = complete masking effect. The settings on record: isovaleric acid (1%) 2 μL, test substance 4 μl, vaporized and admixed in PP bottle; scale 0 (No masking effect) to 5 (Complete masking effect). The method, then:
An olfactory masking test based on sensory evaluation was performed with 20 specialists. Isovaleric acid (1%) was used as a malodorous substance, and each of the substances listed in Table 2 was employed as a masking material. The malodorous substance (2 μL) and each test substance (4 μl) were separately absorbed by cotton balls (diameter: 1 cm), and placed in each injection syringe (capacity: 50 mL) at room temperature for 12 hours to vaporized the substance therein. Both the vaporized malodorous substance and the vaporized test substance were injected into a PP bottle (capacity: 500 mL) with a cap and admixed in the bottle. In evaluation, each specialist slightly opened the cap of the PP bottle and smelled the odor in the bottle, whereby the masking score was determined. The masking score was evaluated by the following six criteria, based on the intensity of odor in a PP bottle to which only the malodorous substance had been added.
1: Only slight masking effect
3: Satisfactory masking effect
4: Substantially complete masking effect
5: Complete masking effect

[3] abbreviates: test substance 1 μL in 1 mL normal Ringer's solution, sprayed 720 ms at 50 kPa, depolarized from −100 mV to −20 mV, (1−b/a)×100, average of three cells.
The mark [4] stands for this setting: values calculated in the experiments of Example 1, repeated in Table 3.

For `CC(C)(O)CCCC1=CCC(C=O)CC1` (centres unmarked) [4-(4-Hydroxy-4-methylpentyl)-3-cyclohexene-1-carboxaldehyde], the “Percent inward current inhibition” value in test [1] (setting [3]) and in test [1] (setting [4]) was 35.7% each time. Also, the Masking score in test [2] is recorded as 1.7.
For `CCCCCC1C(=O)CCC1CC(=O)OC` (centres unmarked) [Methyl dihydrojasmonate], in test [1] (setting [3]), the “Percent inward current inhibition” value is 107.1%.
With `CC1=CC(C)C(C=O)CC1` (centres unmarked) [2,4-Dimethyl-3-cyclohexene-1-carboxaldehyde], the “Percent inward current inhibition” value in test [1] (setting [3]) and in test [1] (setting [4]) was 79.9% in each case. The compound also registered a Masking score in test [2] of 4.5.
As to `C=CC(C)(CCC=C(C)C)OC(C)=O` (centres unmarked) [Linalyl acetate], the “Percent inward current inhibition” value in test [1] (setting [3]) and in test [1] (setting [4]) was 43.3% throughout. This compound also came in with a Masking score in test [2] of 3.0.
Consider `C=CC(C)(O)CCC=C(C)C` (centres unmarked) [Linalool], for which the “Percent inward current inhibition” value in test [1] (setting [3]) and in test [1] (setting [4]) was 106.5% throughout. This compound showed a Masking score in test [2] of 4.1.
`COc1ccc(C=O)cc1` [Anisaldehyde]: the “Percent inward current inhibition” value in test [1] (setting [3]) and in test [1] (setting [4]) was 89.3% in each case. The same compound registered a Masking score in test [2] of 3.9.
On to `CC(=O)OCCC(C)C` [Isoamyl acetate], for which the “Percent inward current inhibition” value in test [1] (setting [3]) and in test [1] (setting [4]) was 92.0% each time. Moreover, in test [2], the Masking score is recorded as 4.5.
As to `CCC(O)COC1CCCCC1C(C)(C)C` (centres unmarked) [1-(2-tert-Butylcyclohexyloxy)-2-butanol], the “Percent inward current inhibition” value in test [1] (setting [3]) and in test [1] (setting [4]) was 27.1% throughout. In addition, the Masking score in test [2] is listed as 1.7.
Turning to `CC12CCC(CC1)C(C)(C)O2` [1,8-Cineole], the “Percent inward current inhibition” value in test [1] (setting [3]) and in test [1] (setting [4]) was 46.5% throughout. The compound also yielded a Masking score in test [2] of 3.6.
For `CC(C)=CCCC(C)=CC=O` [Citral], the “Percent inward current inhibition” value in test [1] (setting [3]) and in test [1] (setting [4]) was 110.6% in each case. Besides, the Masking score in test [2] is listed as 3.9.
For the compound `O=C(OCc1ccccc1)c1ccccc1` [Benzyl benzoate], the “Percent inward current inhibition” value in test [1] (setting [3]) and in test [1] (setting [4]) was 10.7% in each case. In test [2], the Masking score is 1.6.
In the case of `CC(=O)OC1CCCCC1C(C)(C)C` (centres unmarked) [o-tert-Butylcyclohexyl acetate], the “Percent inward current inhibition” value in test [1] (setting [3]) and in test [1] (setting [4]) was 23.8% in each case. In test [2], this compound yielded a Masking score of 1.8.
Take `CCOC(=O)C(C)CC` (centres unmarked) [Ethyl 2-methylbutyrate]: the “Percent inward current inhibition” value in test [1] (setting [3]) is listed as 42.0%.
The same measure, in the same setting: with `C=CCc1ccc(O)c(OC)c1` [Eugenol] the figure was 105.0%.
As to `CCOC(=O)C(C)C1CCCCC1` (centres unmarked) [Ethyl 2-cyclohexylpropionate], the “Percent inward current inhibition” value in test [1] (setting [3]) and in test [1] (setting [4]) was 48.7% throughout. In test [2], the Masking score is 3.0.
Regarding `C/C=C/C(=O)C1=C(C)CCCC1(C)C` [β-Damascone], the “Percent inward current inhibition” value in test [1] (setting [3]) and in test [1] (setting [4]) was 56.1% in each case. This compound had a Masking score in test [2] of 2.4.
`CC(C=O)Cc1ccc(C(C)(C)C)cc1` (stereo not drawn) [p-tert-Butyl-α-methylhydrocinnamaldehyde]: the “Percent inward current inhibition” value in test [1] (setting [3]) and in test [1] (setting [4]) was 57.9% each time.
As to `CCOC(=O)C12CCCC1C1CCC2C1` (centres unmarked) [Ethyltricyclo[5.2.1.0^2,6]decane-2-carboxylate], the “Percent inward current inhibition” value in test [1] (setting [3]) and in test [1] (setting [4]) was 11.6% each time. Also, the Masking score in test [2] is 1.9.
Regarding `CC(=CCC1CC=C(C)C1(C)C)CO` (centres unmarked) [2-Methyl-4-(2,2,3-trimethyl-3-cyclopenten-1-yl)-2-buten-1-ol], in test [1] (setting [3]), the “Percent inward current inhibition” value worked out at 105.6%.
As to `C=CC(C)CCCC(C)(C)O` (centres unmarked) [Dihydromyrcenol], the “Percent inward current inhibition” value in test [1] (setting [3]) and in test [1] (setting [4]) was 109.0% in each case. Also, the Masking score in test [2] was 4.8.
Turning to `CC(=O)OCc1ccccc1` [Benzyl acetate], the “Percent inward current inhibition” value in test [1] (setting [3]) worked out at 110.8%.
Same read-out and setting: under `CCCCCCCCC=O` [n-Nonanal] stands 107.4%.
Take `O=Cc1ccccc1` [Benzaldehyde]: the “Percent inward current inhibition” value in test [1] (setting [3]) and in test [1] (setting [4]) was 95.4% each time. The same compound returned a Masking score in test [2] of 4.6.
Take `CC/C=C\CCO` [cis-3-Hexenol]: the “Percent inward current inhibition” value in test [1] (setting [3]) and in test [1] (setting [4]) was 78.7% in each case. Also, the Masking score in test [2] turned out to be 4.5.
`CC(C)=CCC/C(C)=C/CO` [Geraniol]: the “Percent inward current inhibition” value in test [1] (setting [3]) and in test [1] (setting [4]) was 90.1% each time. This compound displayed a Masking score in test [2] of 3.9.
`OCCc1ccccc1` [β-Phenylethyl alcohol]: the “Percent inward current inhibition” value in test [1] (setting [3]) and in test [1] (setting [4]) was 82.6% in each case. The Masking score in test [2] was 2.9.
